Assay results reported in publication PMC3923439, “Anti-inflammatory properties of a novel peptide interleukin 1 receptor antagonist” (Journal of Neuroinflammation, 2014).
Positions of bridges follow the written chain, without caps; N, C: chain ends. Chains are numbered I, II in the order given. No end group written: not given here.

Assays:
[1] = Pharmacokinetics: plasma and CSF concentration by competitive ELISA; format: in vivo; conditions: rat, single s.c. 10 mg/kg, calculated
Description: Biotinylated Ilantide-t (Schafer-N) was administered to adult male Wistar rats subcutaneously (s.c.) at a dose of 10 mg/kg. Twenty minutes, sixty minutes, one hundred forty minutes, five hours and thirty hours after peptide administration, blood samples (approximately 300 μl) were collected from the orbital plexus under fentanyl/droperidol/midazolam anesthesia (0.002%/0.14%/0.014% wt/vol) (Department of Experimental Medicine, University of Copenhagen, Denmark) in ethylenediaminetetraacetic acid–coated tubes (BD, Plymouth, UK), and 50 to 110 U/ml aprotinin (Calbiochem, San Diego, CA, USA) was added immediately to the collected blood. The samples were subsequently centrifuged at 1,500 × g for 15 minutes. Cerebrospinal fluid (CSF) was collected from the cisterna magna 30 minutes after peptide administration as described previously. Plasma and CSF samples were stored at -80°C.
The concentrations of Ilantide-t in plasma and CSF samples were measured by performing a competitive ELISA on amino 96-well plates (Nunc). […] Color development was terminated by the addition of 2 M H2SO4 (100 μl/well), and absorbance was read at 450 nm on a Wallac Victor 1420 multilabel counter (PerkinElmer, Hvidovre, Denmark). Peptide concentrations in the samples were determined using a standard curve. […]

[2] = system: experimental autoimmune encephalomyelitis; test: Experimental autoimmune encephalomyelitis; format: in vivo, rat; conditions: female Lewis rats
Description: Experimental autoimmune enchephalomyelitis was induced in female Lewis rats by guinea pig myelin basic protein (MBP) emulsified with CFA (Sigma-Aldrich) that contained 1.0 mg/ml heat-inactivated M. tuberculosis. While the animals were under inhalation anesthesia (3% isoflurane; Baxter), 200 μl of an emulsion that contained 200 μg of MBP were subcutaneously injected at the tail base (dpi 0). Between dpi 0 and 21, weight and clinical signs of EAE were recorded daily for all of the animals. Clinical signs were scored as follows: 0 (no abnormality), 0.5 (weak tail), 1 (limp tail), 2 (mild palsy of one or both hind legs), 3 (severe palsy of one or both hind legs), 4 (complete paralysis of one or both hind legs), 5 (paralysis of one or both hindlimbs and the beginning of paralysis of the forelimbs) and 6 (moribund). Animals with a clinical score ≥4 were immediately killed. From dpi 10 forward, the animals were treated once daily for 5 consecutive days with Ilantide-t (10 mg/kg, 1 ml/kg, s.c.) or PBS (1.0 ml/kg s.c.). Only animals that reached a clinical score ≥1 before dpi 14 were included in the study.

AMJ2-C8 macrophages = test: TNF-α secretion from IL-1β-activated macrophages (L929 bioassay); format: cell-based, mouse; conditions: 1.2 pM IL-1β, 24 hours; TNF-α by L929 survival with actinomycin D; hydrocortisone at 100 μM
Description: A murine alveolar macrophage cell line, AMJ2-C8 (American Type Culture Collection, Borås, Sweden), was routinely grown at 37°C with 5% CO2 in DMEM supplemented with 5% (vol/vol) FCS, 0.5% (v/v) 2-[4-(2-hydroxyethyl)piperazin-1-yl]ethanesulfonic acid (HEPES) (Gibco BRL), 2 mM GlutaMAX, 100 U/ml penicillin and 100 μg/ml streptomycin.
AMJ2-C8 macrophages were seeded into six-well multidishes at a density of 2.5 × 10^5 cells/well, and sIL-1RI, IL-1Ra or various concentrations of Ilantide were added to the cultures. Treatment with 100 μM hydrocortisone (Sigma-Aldrich, Brøndby, Denmark) was used as a positive control. After 10-minute incubation at 37°C, 1.2 pM IL-1β or IFN-γ (R&D Systems) was added to activate the macrophages. L929 cells were seeded onto a 96-well plate (Nunc, Roskilde, Denmark) at a density 0.2 × 10^2 cells/ml. Both cell cultures were incubated for 24 hours at 37°C. Conditioned medium from macrophages was collected and added to the L929 cell cultures together with actinomycin D (0.6 μg/well; Sigma-Aldrich). TNF-α is known to induce classic apoptosis in L929 cells in the presence of actinomycin D [12]. After 24-hour incubation at 37°C, 20 μl of 3-(4,5-dimethylthiazol-2-yl)-5-(3-carboxymethoxyphenyl)-2-(4-sulfophenyl)-2H-tetrazolium (Promega, Madison, WI, USA) were added to each well and incubated at 37°C in the dark for 45 minutes, then measured in an ELISA reader at 490 nm. To calculate the amount of TNF-α in the conditioned medium, fibroblasts were treated with standard concentrations of TNF-α (R&D Systems).

[3] = 10 mg/kg s.c. once daily dpi 10 to 14
[4] = 10 mg/kg s.c. once daily for 5 days

| Substance | Plasma half-life [1] | Clinical signs of EAE [2, 3] | Effect on weight change or survival in EAE [2, 3] | Mean clinical signs of EAE versus vehicle, first and second days after onset [2, 4] | Mean clinical signs of EAE versus vehicle, later time points [2, 4] | Inhibition of IL-1β-induced TNF-α secretion in macrophages (AMJ2-C8 macrophages) |
| --- | --- | --- | --- | --- | --- | --- |
| I: SGRKSSKMQAKK-NH2 / II: SGRKSSKMQAK / III: SGRKSSKMQA / IV: SGRKSSKMQA (amide I:11-IV:C, I:12-II:C, II:11-III:C; C-terminus assumed) [Ilantide-t] | approximately 2 hours | attenuated | no significant effects | significantly lower | no difference | significantly inhibited |
| IL-1Ra: recombinant interleukin 1 receptor antagonist purchased from R&D Systems |  |  |  |  |  | significantly inhibited |
